Measurements from patent US5604206A, “Complexes containing S(+) phenyl alkane acids and amino sugars” (priority 1990, dated 1997).

What was measured:
clinical = conditions: human, in vivo, po
[1] = Pharmacokinetics after a single oral dose in test persons (Table 1)
[2] = single oral dose, tablet, 150 mg ibuprofen active substance, 4 test persons, Mean ± SD

Row | SMILES | tmax (clinical) | tlag [1, 2] | tmax (rapid onset effect) ([1]; 150 mg active substance) | AUC [1, 2] | Cmax [1, 2] | tmax [1, 2]
1 | CC(C)Cc1ccc([C@H](C)C(=O)O)cc1 [S(+)-ibuprofen free acid, S(+)-ibuprofen, reference compound] | 2.1 ± 0.2 h | 0.50 ± 0.1 h |  |  |  | 
2 | CC(C)Cc1ccc([C@H](C)C(=O)O)cc1.CNC[C@H](O)[C@@H](O)[C@H](O)[C@H](O)CO [Sugar complex, S(+)-ibuprofen-N-methyl-2-deoxy-glucitol] |  | 0.1 ± 0.02 h | 0.25 to 0.333 h | 55000 ± 10200 ng·h/mL | 24500 ± 6700 ng/mL | 0.25 ± 0.11 h
